{
  "source": "paper PMC4409337",
  "about": "“Immucillins Impair Leishmania (L.) infantum chagasi and Leishmania (L.) amazonensis Multiplication In Vitro” (PLoS ONE, 2015)",
  "key": {"[1]": {"system": "L. (L.) amazonensis promastigotes", "assay": "In vitro growth of promastigotes in FBS supplemented Schneider's insect medium", "format": "cell-based, Leishmania (L.) amazonensis", "details": "Leishmania amazonensis; for inhibition at 500 µM: after 96 h of culture, read-out: percent inhibition on L. (L.) amazonensis replication; for IC50: single addition at 0 h, evaluated after 48 hours, 26°C, read-out: IC50 (CI 95%) on L. (L.) amazonensis promastigotes in vitro growth", "text": "The strain of Leishmania (L.) infantum chagasi MHOM/BR/1974/PP75 was obtained from the Leishmania Type Culture Collection (Fundacão Oswaldo Cruz, Rio de Janeiro, RJ, Brazil) and the strain of Leishmania (L.) amazonensis (MHOM/BR/1975/Josefa) was kindly given by Professor Rosâ[…] from Universidade Federal do Rio de Janeiro. Promastigotes were maintained by weekly transfers in screw-capped glass tubes containing Schneider's insect medium (Sigma Aldrich, MO, USA), pH 7.0, supplemented with 10% Fetal Bovine Serum (FBS) at 26°C. Stock solutions (20 mM) of immucillins IA […] prepared using Milli-Q purified water. Log phase promastigotes of L. (L.) infantum chagasi and L. […] Promastigotes were recorded in a Neubauer chamber after 24, 48, 72 and 96 hours of incubation at 26°C. […] We also assayed the possibility of reversing the inhibitory effect of IA in RPMI medium by the addition of adenosine to the culture medium. The concentration of adenosine in Schneider s insect serum supplemented medium was assessed by HPLC using a C-18 reverse-phase column as described."}, "[2]": {"system": "L. (L.) infantum chagasi promastigotes", "assay": "In vitro growth of promastigotes in FBS supplemented Schneider's insect medium", "format": "cell-based, Leishmania (L.) infantum chagasi", "details": "Leishmania infantum; for IC50: single addition at 0 h, evaluated after 48 hours, 26°C, read-out: IC50 (CI 95%) on L. (L.) infantum chagasi promastigotes in vitro growth; for inhibition at 500 µM: after 96 h of culture, read-out: percent inhibition on L. (L.) infantum chagasi promastigote growth", "text": "The strain of Leishmania (L.) infantum chagasi MHOM/BR/1974/PP75 was obtained from the Leishmania Type Culture Collection (Fundacão Oswaldo Cruz, Rio de Janeiro, RJ, Brazil) and the strain of Leishmania (L.) amazonensis (MHOM/BR/1975/Josefa) was kindly given by Professor Rosâ[…] from Universidade Federal do Rio de Janeiro. Promastigotes were maintained by weekly transfers in screw-capped glass tubes containing Schneider's insect medium (Sigma Aldrich, MO, USA), pH 7.0, supplemented with 10% Fetal Bovine Serum (FBS) at 26°C. […] Log phase promastigotes of L. (L.) infantum chagasi and L. […] Promastigotes were recorded in a Neubauer chamber after 24, 48, 72 and 96 hours of incubation at 26°C. […] The concentration of adenosine in Schneider s insect serum supplemented medium was assessed by HPLC using a C-18 reverse-phase column as described."}, "[3]": {"molecular_target": "T1, Nucleoside hydrolase NH36 (Leishmania donovani, UniProt Q8WQX2)", "T1 sequence (Q8WQX2 1-314)": "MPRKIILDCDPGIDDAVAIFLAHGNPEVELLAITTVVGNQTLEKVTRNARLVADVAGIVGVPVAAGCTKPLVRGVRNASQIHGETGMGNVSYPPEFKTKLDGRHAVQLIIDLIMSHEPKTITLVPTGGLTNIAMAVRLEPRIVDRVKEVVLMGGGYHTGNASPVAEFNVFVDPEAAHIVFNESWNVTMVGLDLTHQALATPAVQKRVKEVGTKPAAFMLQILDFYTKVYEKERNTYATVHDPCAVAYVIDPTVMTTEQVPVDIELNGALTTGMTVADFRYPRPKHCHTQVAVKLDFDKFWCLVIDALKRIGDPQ", "assay": "Ki determination: inhibition of NH36 activity by immucillins", "format": "biochemical, Leishmania (L.) donovani", "details": "10 mM inosine as substrate, 0.5 nM NH36, pH 7.4, room temperature", "experimental": "(§1) BL21DE3 E.coli were transformed with the synthetic plasmid pET 28b encoding the gene of NH36 of Leishmania (L.) donovani (EMBL, Genbank and DDJB data bases, access number AY007193) with a His6tag at the C-terminal. Expression was induced with 0.5 mM IPTG and overnight incubation at 20°C. Purification of NH36 was performed on a column of Ni-NTA Superflow resin (Qiagen, USA) eluted by a stepwise imidazole gradient and monitored by SDS-polyacrylamide gel electrophoresis and protein assay. The extinction coefficient of NH36 is 21.437 mM^-1 cm^-1 at 280 nm, as calculated with the ProtParam program from ExPASy, and was used to estimate protein concentration (http://ca.expasy.org/seqanalref/). The yield of NH36 after purification was 11.87 mg per Liter of bacterial growth culture. Non-specific His-proteins with weak interactions were eluted with 50–100 mM imidazole (S1 Fig). The purified NH36 started to elute with 150 mM imidazole. We used 250 mM of imidazol in elution buffer for purification of NH36.\nThe reaction mixtures contained 10 mM inosine as substrate, 50 mM Hepes (pH 7.4), 100 mM KCl, 5 mM DTT and 1 unit XOD. The hydrolysis of inosine to hypoxanthine and ribose was followed by continuous reading of optical absorbance at 293 nm, using variable concentrations of inhibitors in a CARY 300UV-visible spectrophotometer. Controls without enzyme and without inhibitors were included in all inhibition assays. The inhibition constant for each immucillin was obtained, using GraFit 5 (Erithacus Software), by fitting initial rates with variable inhibitor concentrations to the equation (vi/v0 = [S] / Km + [S] + Km[I] / Ki), where v i is the initial rate in the presence of the inhibitor, v 0 is the initial rate in the absence of the inhibitor, K m is the Michaelis constant for inosine, [S] and [I] are inosine and inhibitor concentrations, respectively, and Ki is the inhibition constant."}, "[4]": {"system": "intracellular amastigotes of L. (L.) infantum chagasi", "details": "ref 44; read-out: IC50 against intracellular amastigotes; cited from earlier work"}, "[5]": {"system": "Nucleoside hydrolase NH36 of L. (L.) donovani", "format": "biochemical, Leishmania (L.) donovani", "details": "substrate of NH36; for k cat /K m: catalytic efficiency; for K m / k cat: 25°C, 50 mM Hepes pH 7.4", "experimental": "as §1\nSteady-state kinetic rates for NH36 were determined on the substrates inosine, guanosine, adenosine, uridine and cytidine. Hypoxanthine and adenine formation were coupled to xanthine oxidase (12.9 mM^-1 cm^-1 at 293 nm and 15.2 mM^-1 cm^-1 at 305 nm, respectively), and the others were followed by direct uv absorbance changes resulting from cleavage of the N-ribosidic bond. Reaction mixtures contained 50 mM Hepes (pH 7.4), 100 mM NaCl and 5 mM of DTT. One unit, and 0.1 unit of xanthine oxidase (XOD) were used as the coupling enzyme to the adenosine and inosine assays, respectively. Spectral changes for hydrolysis of guanosine, uridine and cytidine were 5.4 mM^-1 cm^-1 at 257 nm,1.8 mM^-1 cm^-1 at 280 nm and 1.8 mM^-1 cm^-1 at 288 nm, respectively. Variable concentrations of substrate and appropriate amounts of purified NH36 were added in all assays. The hydrolysis of nucleosides to bases and ribose was followed by continuous recording of optical absorbance after addition of the enzyme, in a CARY 300 UV-visible spectrophotometer. Control rates with no enzyme addition were subtracted from initial rates. Reactions with substrates were conducted at 25°C using 1 cm path length cuvettes containing 1 mL reaction volumes. Kinetic parameters of NH36 were obtained by fitting initial rates to the Michaelis−Menten equation using GraFit 5 (Erithacus Software)."}, "[6]": {"system": "NH of L. (L.) major", "parameters": "method as in PMID 10409664", "details": "unit inferred; cited from earlier work"}},
  "data": [
    {"compound": "Nc1ncnc2c(CN3C[C@H](CO)[C@@H](O)C3)c[nH]c12", "note": "[DIA]", "values": [
      {"measurement": "inhibition at 500 µM", "setting": "[1]", "value": 16, "unit": "%"},
      {"measurement": "IC50", "setting": "[2]", "value": 109, "unit": "µM"},
      {"measurement": "inhibition at 500 µM", "setting": "[2]", "value": 69, "unit": "%"},
      {"measurement": "Ki", "setting": "[3]", "value": "> 5", "unit": "µM"}
    ]},
    {"compound": "CC[C@H]1OC(=O)[C@H](C)[C@@H](O[C@H]2C[C@@](C)(OC)[C@@H](O)[C@H](C)O2)[C@H](C)[C@@H](O[C@@H]2O[C@H](C)C[C@H](N(C)C)[C@H]2O)[C@](C)(O)C[C@@H](C)CN(C)[C@H](C)[C@@H](O)[C@]1(C)O", "note": "[Azitromycin]", "values": [
      {"measurement": "IC50", "setting": "[4]", "value": 19.9, "unit": "µM"}
    ]},
    {"compound": "NC[C@@H]1O[C@H](O[C@H]2[C@@H](O)[C@H](O[C@@H]3[C@@H](O)[C@H](N)C[C@H](N)[C@H]3O[C@H]3O[C@H](CO)[C@@H](O)[C@H](O)[C@H]3N)O[C@@H]2CO)[C@H](N)[C@@H](O)[C@@H]1O", "note": "[Paramomycin]", "values": [
      {"measurement": "IC50", "setting": "[4]", "value": 337, "unit": "µM"}
    ]},
    {"compound": "Nc1ncnc2c1ncn2[C@@H]1O[C@H](CO)[C@@H](O)[C@H]1O", "note": "[Adenosine]", "values": [
      {"measurement": "k cat /K m", "setting": "[5]", "value": 53000, "unit": "M⁻¹ s⁻¹"},
      {"measurement": "K m", "setting": "[5]", "value": "70 ± 30", "unit": "µM"},
      {"measurement": "k cat", "setting": "[5]", "value": "3.7 ± 0.1", "unit": "s ^-1"},
      {"measurement": "k cat", "setting": "[6]", "value": 0.57, "unit": "s⁻¹"}
    ]},
    {"compound": "CCCCCCCCCCCCCCCCOP(=O)([O-])OCC[N+](C)(C)C", "note": "[Miltefosine]", "values": [
      {"measurement": "IC50", "setting": "[4]", "value": 4.4, "unit": "µM"}
    ]},
    {"compound": "O=c1[nH]cnc2c(CN3C[C@H](CO)[C@@H](O)C3)c[nH]c12", "note": "[DIH]", "values": [
      {"measurement": "inhibition at 500 µM", "setting": "[1]", "value": 89, "unit": "%"},
      {"measurement": "IC50", "setting": "[1]", "value": 3.4, "unit": "µM"},
      {"measurement": "IC50", "setting": "[2]", "value": 1.8, "unit": "µM"},
      {"measurement": "inhibition at 500 µM", "setting": "[2]", "value": 89, "unit": "%"},
      {"measurement": "Ki", "setting": "[3]", "value": "> 5", "unit": "µM"}
    ]},
    {"compound": "Nc1ncnc2c(CNC(CO)CO)c[nH]c12", "note": "[SMIA]", "values": [
      {"measurement": "inhibition at 500 µM", "setting": "[1]", "value": 71, "unit": "%"},
      {"measurement": "IC50", "setting": "[1]", "value": 157, "unit": "µM"},
      {"measurement": "IC50", "setting": "[2]", "value": 349, "unit": "µM"},
      {"measurement": "inhibition at 500 µM", "setting": "[2]", "value": 71, "unit": "%"},
      {"measurement": "Ki", "setting": "[3]", "value": "> 5", "unit": "µM"}
    ]},
    {"compound": "C[C@@H]1[C@H](O)[C@@H](C)/C=C/C=C/C=C/C=C/C=C/C=C/C=C/[C@H](O[C@@H]2O[C@H](C)[C@@H](O)[C@H](N)[C@@H]2O)C[C@@H]2O[C@](O)(C[C@@H](O)C[C@@H](O)[C@H](O)CC[C@@H](O)C[C@@H](O)CC(=O)O[C@H]1C)C[C@H](O)[C@H]2C(=O)O", "note": "[Amphotericin]", "values": [
      {"measurement": "IC50", "setting": "[4]", "value": 0.04, "unit": "µM"}
    ]},
    {"compound": "Nc1nc2c(CNC(CO)CO)c[nH]c2c(=O)[nH]1", "note": "[SMIG]", "values": [
      {"measurement": "IC50", "setting": "[1]", "value": 29.4, "unit": "µM"},
      {"measurement": "IC50", "setting": "[2]", "value": 25.8, "unit": "µM"},
      {"measurement": "inhibition at 500 µM", "setting": "[2]", "value": 70, "unit": "%"},
      {"measurement": "Ki", "setting": "[3]", "value": 1.8, "unit": "µM"}
    ]},
    {"compound": "Nc1nc2c(CN3C[C@H](CO)[C@@H](O)C3)c[nH]c2c(=O)[nH]1", "note": "[DIG]", "values": [
      {"measurement": "inhibition at 500 µM", "setting": "[1]", "value": 67, "unit": "%"},
      {"measurement": "IC50", "setting": "[1]", "value": 40, "unit": "µM"},
      {"measurement": "IC50", "setting": "[2]", "value": 23.7, "unit": "µM"},
      {"measurement": "inhibition at 500 µM", "setting": "[2]", "value": 68, "unit": "%"},
      {"measurement": "Ki", "setting": "[3]", "value": "> 5", "unit": "µM"}
    ]},
    {"compound": "Nc1nc2c(ncn2[C@@H]2O[C@H](CO)[C@@H](O)[C@H]2O)c(=O)[nH]1", "note": "[Guanosine]", "values": [
      {"measurement": "k cat /K m", "setting": "[5]", "value": 1200, "unit": "M⁻¹ s⁻¹"},
      {"measurement": "K m", "setting": "[5]", "value": "380 ± 153", "unit": "µM"},
      {"measurement": "k cat", "setting": "[5]", "value": "0.47 ± 0.1", "unit": "s ^-1"}
    ]},
    {"compound": "Nc1ccn([C@@H]2O[C@H](CO)[C@@H](O)[C@H]2O)c(=O)n1", "note": "[Cytidine]", "values": [
      {"measurement": "k cat /K m", "setting": "[5]", "value": 9300, "unit": "M⁻¹ s⁻¹"},
      {"measurement": "K m", "setting": "[5]", "value": "1,403 ± 282 μM"},
      {"measurement": "k cat", "setting": "[5]", "value": "13.1 ± 1.1", "unit": "s ^-1"},
      {"measurement": "k cat", "setting": "[6]", "value": 0.36, "unit": "s⁻¹"}
    ]}
  ]
}
